Laboratory results published in patent US20110039721A1, “METHOD FOR PREDICTION ABOUT CARCINOGENICITY OF SUBSTANCE IN RODENT” (Chemicals Evaluation and Research Institute, priority 2007, published 2011).

What was measured:
rodent = details: in vivo; cited from earlier work
[1] = tested on: mRNA expressed from the genes (A) to (D) in rat liver; test: Behavior of genes (mRNA expression level, oligo-DNA microarray) in rat liver after 28-day oral administration; type: in vivo; details: rat liver, oral once daily 28 days
In short: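 Male F344 SPF rats, 5 weeks old, four per group, received carcinogens, non-carcinogens or solvent vehicle by oral gavage once daily for 28 days. Liver total RNA was then extracted. Changes of ≥1.5-fold or ≤1/1.5 versus vehicle control, in a consistent direction across carcinogens, counted as significant.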

liver = details: in vivo; cited from earlier work
[2] = (C), Unigene Rn.120914, defined direction +

SMILES: CC(=N)S [TS030, Thioacetoamide]
- Carcinogenicity (rodent): C+
- Behavior of gene caused by administration of chemical substance, Gene No. 4846 ([1]; (A), Unigene Rn.144554, defined direction +): +
- Behavior of gene caused by administration of chemical substance, Gene No. 4218 ([1]; (A), Unigene Rn.167075, defined direction +, significant = 1.5 times or more or 1/1.5 or less of control): +
- Behavior of gene caused by administration of chemical substance, Gene No. 2026 ([1]; (A), Unigene Rn.167075, defined direction −): +
- Behavior of gene caused by administration of chemical substance, Gene No. 6182 ([1]; (A), Unigene Rn.5834, defined direction +): +
- Behavior of gene caused by administration of chemical substance, Gene No. 5600 ([1]; (A), Unigene Rn.9836, defined direction +): +
- Behavior of gene caused by administration of chemical substance, Gene No. 1494 ([1]; (B), Unigene Rn.1430, defined direction −): +
- Behavior of gene caused by administration of chemical substance, Gene No. 2045 ([1]; (B), Unigene Rn.19329, defined direction +): −
- Behavior of gene caused by administration of chemical substance, Gene No. 2203 ([1]; (B), Unigene Rn.21240, defined direction +): −
- Behavior of gene caused by administration of chemical substance, Gene No. 533 ([1]; (C), Unigene Rn.106184, defined direction +): +
- Behavior of gene caused by administration of chemical substance, Gene No. 725 ([1]; (C), Unigene Rn.108075, defined direction −): +
- Behavior of gene caused by administration of chemical substance, Gene No. 1163 ([1]; (C), Unigene Rn.11766, defined direction +): −
- Behavior of gene caused by administration of chemical substance, Gene No. 4973 ([1]; (C), Unigene Rn.118529, defined direction −): +
- Behavior of gene caused by administration of chemical substance, Gene No. 4095 ([1]; (C), Unigene Rn.119024, defined direction −): +
- Behavior of gene caused by administration of chemical substance, Gene No. 1334 [1, 2]: −
- Behavior of gene caused by administration of chemical substance, Gene No. 6620 [1, 2]: −
- Behavior of gene caused by administration of chemical substance, Gene No. 6303 ([1]; (C), Unigene Rn.123063, defined direction −): +
- Behavior of gene caused by administration of chemical substance, Gene No. 5878 ([1]; (C), Unigene Rn.143213, defined direction −): −
- Behavior of gene caused by administration of chemical substance, Gene No. 1131 ([1]; (C), Unigene Rn.144946, defined direction −): −
- Behavior of gene caused by administration of chemical substance, Gene No. 1562 ([1]; (C), Unigene Rn.14744, defined direction −): +
- Behavior of gene caused by administration of chemical substance, Gene No. 1741 ([1]; (C), Unigene Rn.1647, defined direction −): +
- Behavior of gene caused by administration of chemical substance, Gene No. 893 ([1]; (C), Unigene Rn.164817, defined direction +): +
- Behavior of gene caused by administration of chemical substance, Gene No. 6026 ([1]; (C), Unigene Rn.167685, defined direction −): −
- Behavior of gene caused by administration of chemical substance, Gene No. 154 ([1]; (C), Unigene Rn.185941, defined direction −): +
- Behavior of gene caused by administration of chemical substance, Gene No. 1993 ([1]; (C), Unigene Rn.18728, defined direction −): +
- Behavior of gene caused by administration of chemical substance, Gene No. 813 ([1]; (C), Unigene Rn.201760, defined direction +): +
- Behavior of gene caused by administration of chemical substance, Gene No. 2494 ([1]; (C), Unigene Rn.23969, defined direction +): +
- Behavior of gene caused by administration of chemical substance, Gene No. 2546 ([1]; (C), Unigene Rn.24561, defined direction −): −
- Behavior of gene caused by administration of chemical substance, Gene No. 3776 ([1]; (C), Unigene Rn.43232, defined direction −): +
- Behavior of gene caused by administration of chemical substance, Gene No. 3929 ([1]; (C), Unigene Rn.4620, defined direction +): −
- Behavior of gene caused by administration of chemical substance, Gene No. 1119 ([1]; (C), Unigene Rn.9757, defined direction +): −
- Behavior of gene caused by administration of chemical substance, Gene No. 6742 ([1]; (C), Unigene Rn.9779, defined direction +): −
- Behavior of gene caused by administration of chemical substance, Gene No. 5634 ([1]; (C), Unigene Rn.9862, defined direction −): −
- Behavior of gene caused by administration of chemical substance, Gene No. 5726 ([1]; (D), Unigene Rn.9939, defined direction −): +
- Liver carcinogenicity (liver): Cr+
